Data taken from PubChem BioAssay AID1259407 (Chemical Carcinogenesis Research Information System (CCRIS), 2018).
The source made the active and inactive calls. No rule for the calls is given here.

Test system: CCRIS mutagenicity, Ames/micronucleus/aberration tests
Assay: CCRIS mutagenicity studies
Details: Test System: AMES SALMONELLA TYPHIMURIUM
[1] = Strain/Indicator: TA98, Metabolic Activation: NONE, Method: STANDARD PLATE
[2] = Strain/Indicator: TA100, Metabolic Activation: NONE, Method: STANDARD PLATE

## Clc1cccc(Cl)c1
Strain/Indicator: TA98, Metabolic Activation: HAMSTER, LIVER, S-9, AROCLOR 1254, Method: PREINCUBATION
  mutagenic call: inactive; negative
Strain/Indicator: TA98, Metabolic Activation: NONE, Method: PREINCUBATION
  mutagenic call: inactive; negative
[1]
  mutagenic call: inactive; negative
Strain/Indicator: TA98, Metabolic Activation: RAT, LIVER, S-9, AROCLOR 1254, Method: PREINCUBATION
  mutagenic call: inactive; negative
Strain/Indicator: TA98, Metabolic Activation: RAT, LIVER, S-9, AROCLOR, Method: STANDARD PLATE
  mutagenic call: inactive; negative
Strain/Indicator: TA100, Metabolic Activation: HAMSTER, LIVER, S-9, AROCLOR 1254, Method: PREINCUBATION
  mutagenic call: inactive; negative
Strain/Indicator: TA100, Metabolic Activation: NONE, Method: PREINCUBATION
  mutagenic call: inactive; negative
[2]
  mutagenic call: inactive; negative
Strain/Indicator: TA100, Metabolic Activation: RAT, LIVER, S-9, AROCLOR 1254, Method: PREINCUBATION
  mutagenic call: inactive; negative
Strain/Indicator: TA100, Metabolic Activation: RAT, LIVER, S-9, AROCLOR, Method: STANDARD PLATE
  mutagenic call: inactive; negative
Strain/Indicator: TA1535, Metabolic Activation: HAMSTER, LIVER, S-9, AROCLOR 1254, Method: PREINCUBATION
  mutagenic call: inactive; negative
Strain/Indicator: TA1535, Metabolic Activation: NONE, Method: PREINCUBATION
  mutagenic call: inactive; negative
Strain/Indicator: TA1535, Metabolic Activation: RAT, LIVER, S-9, AROCLOR 1254, Method: PREINCUBATION
  mutagenic call: inactive; negative
Strain/Indicator: TA1537, Metabolic Activation: HAMSTER, LIVER, S-9, AROCLOR 1254, Method: PREINCUBATION
  mutagenic call: inactive; negative
Strain/Indicator: TA1537, Metabolic Activation: NONE, Method: PREINCUBATION
  mutagenic call: inactive; negative
Strain/Indicator: TA1537, Metabolic Activation: RAT, LIVER, S-9, AROCLOR 1254, Method: PREINCUBATION
  mutagenic call: inactive; negative
Strain/Indicator: UTH8413, Metabolic Activation: NONE, Method: STANDARD PLATE
  mutagenic call: inactive; negative
Strain/Indicator: UTH8413, Metabolic Activation: RAT, LIVER, S-9, AROCLOR, Method: STANDARD PLATE
  mutagenic call: inactive; negative
Strain/Indicator: UTH8414, Metabolic Activation: NONE, Method: STANDARD PLATE
  mutagenic call: inactive; negative
Strain/Indicator: UTH8414, Metabolic Activation: RAT, LIVER, S-9, AROCLOR, Method: STANDARD PLATE
  mutagenic call: inactive; negative

## O[C@H]1C=Cc2c(ccc3cc4c(cc23)[C@H](O)[C@@H](O)c2ccccc2-4)[C@@H]1O
Strain/Indicator: TA100, Metabolic Activation: RAT, LIVER, S-9, AROCLOR 1254, Method: STANDARD PLATE
  mutagenic call: inactive; negative

## CCCN(C(=O)CCCl)c1snc2ccccc12
[1]
  mutagenic call: inactive; negative
Strain/Indicator: TA98, Metabolic Activation: S-9, Method: STANDARD PLATE
  mutagenic call: inactive; negative
[2]
  mutagenic call: inactive; negative
Strain/Indicator: TA100, Metabolic Activation: S-9, Method: STANDARD PLATE
  mutagenic call: inactive; negative
Strain/Indicator: TA1535, Metabolic Activation: NONE, Method: STANDARD PLATE
  mutagenic call: active; positive
Strain/Indicator: TA1535, Metabolic Activation: S-9, Method: STANDARD PLATE
  mutagenic call: active; positive
Strain/Indicator: TA1537, Metabolic Activation: NONE, Method: STANDARD PLATE
  mutagenic call: inactive; negative
Strain/Indicator: TA1537, Metabolic Activation: S-9, Method: STANDARD PLATE
  mutagenic call: inactive; negative
